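GI50 marks 50% less growth. Definition used: TGI = concentration required for complete inhibition of growth.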
Tests used:
Test in all cases: NCI anticancer screen, dose series, 384-well format
HOP-62 NSCLC = tested on: HOP-62 NSCLC
M14 melanoma = tested on: M14 melanoma
SF-295 CNS = tested on: SF-295 CNS
HCT-15 colon = tested on: HCT-15 colon
NCI-H322M lung = tested on: NCI-H322M lung
SK-MEL-5 melanoma = tested on: SK-MEL-5 melanoma
OVCAR-5 ovarian = tested on: OVCAR-5 ovarian
A498 renal = tested on: A498 renal
SNB-19 CNS = tested on: SNB-19 CNS
UACC-62 melanoma = tested on: UACC-62 melanoma
T-47D breast = tested on: T-47D breast
ACHN renal = tested on: ACHN renal
HL-60(TB) leukemia = tested on: HL-60(TB) leukemia

Which results are given for `Cc1c(Br)c(Br)c2c3c1nc(N1CCNCC1)n3CCC2`?
GI50 (HOP-62 NSCLC): 1.72 µM; TGI (HOP-62 NSCLC): 3.57 µM; GI50 (M14 melanoma): 1.53 µM; TGI (M14 melanoma): 2.88 µM; GI50 (SF-295 CNS): 1.69 µM; TGI (SF-295 CNS): 3.1 µM; GI50 (HCT-15 colon): 1.6 µM; TGI (HCT-15 colon): 2.98 µM; GI50 (NCI-H322M lung): 1.73 µM; TGI (NCI-H322M lung): 3.42 µM; GI50 (SK-MEL-5 melanoma): 1.25 µM; TGI (SK-MEL-5 melanoma): 2.51 µM; GI50 (OVCAR-5 ovarian): 1.74 µM; TGI (OVCAR-5 ovarian): 3.24 µM; GI50 (A498 renal): 0.792 µM; TGI (A498 renal): 2.07 µM; GI50 (SNB-19 CNS): 1.75 µM; TGI (SNB-19 CNS): 3.24 µM; GI50 (UACC-62 melanoma): 1.48 µM; TGI (UACC-62 melanoma): 2.82 µM; GI50 (T-47D breast): 1.52 µM; TGI (T-47D breast): 2.86 µM; GI50 (ACHN renal): 1.37 µM; TGI (ACHN renal): 2.73 µM; GI50 (HL-60(TB) leukemia): 0.49 µM; TGI (HL-60(TB) leukemia): 0.998 µM

Which GI50 (HOP-62 NSCLC) does the source give for `CN1C(=O)[C@@H](CC2CCCC2)N(C2CCCC2)c2nc(Nc3cc(Cl)c(O)c(Cl)c3)ncc21` here?
Its GI50 is 12.1 µM.

What about the TGI (HOP-62 NSCLC) of the same compound?
The TGI was 33.1 µM.

What about the GI50 (M14 melanoma) of the same compound?
Its GI50 is 6.27 µM.

What about the TGI (M14 melanoma) of the same compound?
Its TGI is 97.7 µM.

And the GI50 (SF-295 CNS)?
Its GI50 is 13 µM.

And the TGI (SF-295 CNS)?
The TGI was 29.3 µM.

And the GI50 (HCT-15 colon)?
Its GI50 is 4.62 µM.

And the TGI (HCT-15 colon)?
Its TGI is 21 µM.

And the GI50 (NCI-H322M lung)?
The GI50 was 15.4 µM.

And the TGI (NCI-H322M lung)?
Its TGI is 97.8 µM.

What about the GI50 (SK-MEL-5 melanoma) of the same compound?
The GI50 was 4.57 µM.

And the TGI (SK-MEL-5 melanoma)?
Its TGI is 16.4 µM.

What about the GI50 (OVCAR-5 ovarian) of the same compound?
The GI50 was 14.8 µM.

And the TGI (OVCAR-5 ovarian)?
Its TGI is > 100 µM.

What about the GI50 (A498 renal) of the same compound?
Its GI50 is 10.1 µM.

What about the TGI (A498 renal) of the same compound?
Its TGI is 27.1 µM.

What about the GI50 (SNB-19 CNS) of the same compound?
The GI50 was 4.67 µM.

And the TGI (SNB-19 CNS)?
The TGI was > 100 µM.

What about the GI50 (UACC-62 melanoma) of the same compound?
The GI50 was 8.84 µM.

And the TGI (UACC-62 melanoma)?
Its TGI is 23.2 µM.

What about the GI50 (T-47D breast) of the same compound?
Its GI50 is 2.38 µM.

And the TGI (T-47D breast)?
Its TGI is > 100 µM.

What about the GI50 (ACHN renal) of the same compound?
Its GI50 is 6.38 µM.

And the TGI (ACHN renal)?
The TGI was 26.2 µM.

What about the GI50 (HL-60(TB) leukemia) of the same compound?
The GI50 was 1.75 µM.

And the TGI (HL-60(TB) leukemia)?
Its TGI is 3.17 µM.

Reference: PubChem BioAssay (NCI)
